The values that follow come from patent US20260317356A1, “SMALL MOLECULE MODULATORS OF OGG1” (AZKARRA THERAPEUTICS, INC., priority 2023, published 2026).

Usually pKd stands for −log10 of the Kd, conventionally taken in molar units.

SMILES strings stand for the structures. pKd: −log10 of the molar value.

hOGG1, sequence (O15527 12-323): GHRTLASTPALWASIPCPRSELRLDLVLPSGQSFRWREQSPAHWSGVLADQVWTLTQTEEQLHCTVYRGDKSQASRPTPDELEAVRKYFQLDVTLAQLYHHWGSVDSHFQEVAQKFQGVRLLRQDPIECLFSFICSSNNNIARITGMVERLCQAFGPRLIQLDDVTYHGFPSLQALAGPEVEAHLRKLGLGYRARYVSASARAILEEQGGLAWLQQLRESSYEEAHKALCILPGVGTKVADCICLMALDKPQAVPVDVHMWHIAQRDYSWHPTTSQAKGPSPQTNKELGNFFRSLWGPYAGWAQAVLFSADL

The assay concerns the target hOGG1 (Homo sapiens, UniProt O15527). Put plainly: Surface Plasma Resonance with hOGG1 to measure compound affinity (OGG1 SPR Kd). It counts as binding. Also noted: Protein His-hOGG1 (12-323) was prepared. To be noted: Biacore T-200, immobilized his-tagged OGG1; pH 7.4; 2% DMSO; single-cycle kinetics. The gist of the method:
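His-tagged recombinant OGG1 was captured on an NTA chip via Ni²⁺ (~2500 RU final). Single-cycle kinetics used five 3-fold compound concentrations (top 750 or 1500 nM) in 20 mM HEPES pH 7.4, 150 mM NaCl, 0.5 mM TCEP, 0.005% Tween-20, 2% DMSO; 45 s contact, 600 s dissociation. Kd came from steady-state and 1:1 kinetic fits.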
In general terms: Surface plasmon resonance follows binding to a sensor surface in real time, without labels.
Compound `COc1cc(NC(=O)[C@H]2CC[C@@H](N3Cc4c(C)cc(-c5nnco5)cc4NC3=O)CC2)ccc1C` [Example 92, (1s,4s)-N-(3-methoxy-4-methylphenyl)-4-(5-methyl-7-(1,3,4-oxadiazol-2-yl)-2-oxo-1,2-dihydroquinazolin-3(4H)-yl)cyclohexanecarboxamide] gave a pKd of 7.00 to 8.00. With `COc1ccc(NC(=O)[C@H]2CC[C@@H](N3Cc4c(C)cc(NCCN(C)C)cc4NC3=O)CC2)cc1C` [Example 97, (1s,4s)-4-(7-(2-(dimethylamino)ethylamino)-5-methyl-2-oxo-1,2-dihydroquinazolin-3(4H)-yl)-N-(4-methoxy-3-methylphenyl)cyclohexanecarboxamide] the figure was 7.00 to 8.00; with `COc1ccc(NC(=O)[C@H]2CC[C@@H](N3Cc4c(C)cc(NCCN(C)C)cc4NC3=O)CC2)cc1C#N` [Example 99, (1s,4s)-N-(3-cyano-4-methoxyphenyl)-4-(7-(2-(dimethylamino)ethylamino)-5-methyl-2-oxo-1,2-dihydroquinazolin-3(4H)-yl)cyclohexanecarboxamide], 7.00 to 8.00. `COc1cc(NC(=O)[C@H]2CC[C@@H](N3Cc4c(C)cc(N(C)C)cc4C3=O)CC2)ccc1C` [Example 135, (1s,4s)-4-(6-(Dimethylamino)-4-methyl-1-oxoisoindolin-2-yl)-N-(3-methoxy-4-methylphenyl)cyclohexane-1-carboxamide] showed a pKd of 7.00 to 8.00.

Compound `COc1cc(NC(=O)[C@H]2CC[C@@H](N3Cc4c(C)ccc(C#N)c4C3=O)CC2)ccc1C` [Example 143, (1s,4s)-4-(7-Cyano-4-methyl-1-oxoisoindolin-2-yl)-N-(3-methoxy-4-methylphenyl)cyclohexanecarboxamide] showed a pKd of 7.00 to 8.00. With `CNCCNc1cc(C)c2c(c1)C(=O)N([C@H]1CC[C@@H](C(=O)Nc3ccc(C)c(OC)c3)CC1)C2` [Example 193, (1s,4s)-N-(3-methoxy-4-methylphenyl)-4-(4-methyl-6-(2-(methylamino)ethylamino)-1-oxoisoindolin-2-yl)cyclohexanecarboxamide] the figure was 7.00 to 8.00; with `COc1ccc(NC(=O)[C@H]2CC[C@@H](N3Cc4c(C)cccc4C3=O)CC2)cc1C` [Example 227, (1s,4s)-N-(4-Methoxy-3-methylphenyl)-4-(4-methyl-1-oxoisoindolin-2-yl)cyclohexanecarboxamide], 7.00 to 8.00; with `COc1ccc(NC(=O)[C@H]2CC[C@@H](N3Cc4c(C)cccc4C3=O)CC2)cc1C#N` [Example 239, (1s,4s)-N-(3-Cyano-4-methoxyphenyl)-4-(4-methyl-1-oxoisoindolin-2-yl)cyclohexanecarboxamide], 7.00 to 8.00. Then `COc1cc(NC(=O)[C@H]2CC[C@@H](N3Cc4c(C)cc(OCCN5CC(F)(F)C5)cc4C3=O)CC2)ccc1C` [Example 255, (1s,4s)-4-(6-(2-(3,3-Difluoroazetidin-1-yl)ethoxy)-4-methyl-1-oxoisoindolin-2-yl)-N-(3-methoxy-4-methylphenyl)cyclohexanecarboxamide], with 7.00 to 8.00. For `COc1ccc(NC(=O)[C@H]2CC[C@@H](N3Cc4c(C)cc(NCCN(C)C)cc4C3=O)CC2)cc1C` [Example 256, (1s,4s)-4-(6-(2-(Dimethylamino)ethylamino)-4-methyl-1-oxoisoindolin-2-yl)-N-(4-methoxy-3-methylphenyl)cyclohexanecarboxamide], the pKd is at least 8.00. Turning to `COc1ccc(NC(=O)[C@H]2CC[C@@H](N3Cc4c(C)cc(NCCN(C)C)cc4C3=O)CC2)cc1C#N` [Example 259, (1s,4s)-N-(3-Cyano-4-methoxyphenyl)-4-(6-(2-(dimethylamino)ethylamino)-4-methyl-1-oxoisoindolin-2-yl)cyclohexanecarboxamide], the pKd was 7.00 to 8.00. Compound `COc1ccc(NC(=O)[C@H]2CC[C@@H](N3Cc4c(C)cc(NCCN(C)C)cc4C3=O)CC2)cc1Cl` [Example 260, (1s,4s)-N-(3-Chloro-4-methoxyphenyl)-4-(6-(2-(dimethylamino)ethylamino)-4-methyl-1-oxoisoindolin-2-yl)cyclohexanecarboxamide] had a pKd of 7.00 to 8.00. With `COc1cc(NC(=O)[C@]2(C)CC[C@H](N3Cc4c(C)cccc4C3=O)CC2)ccc1C` [Example 277, (1s,4s)-N-(3-methoxy-4-methylphenyl)-1-methyl-4-(4-methyl-1-oxoisoindolin-2-yl)cyclohexane-1-carboxamide], the negative-log Kd (pKd) is 7.00 to 8.00.
